From patent EP2607478A1, “Phenanthroline treated MSC” (Universiteit Twente, priority 2011, dated 2013)

System: MSCs
Test: Whole genome expression analysis (Illumina microarray) of treated MSCs
Type: cell-based, Human
Conditions: DFO versus Bas
Description: MSCs were seeded in T25 flasks at 5000 cells/cm^2 and allowed to attach overnight in proliferation medium. […] After 48 hours, RNA was isolated as described above. From 500 ng of RNA, cRNA was synthesized using the Illumina TotalPrep RNA amplification Kit (Ambion), according to the manufacturer's protocol and the quality of RNA and cRNA was verified on a Bioanalyzer 2100 (Agilent). Microarrays were performed using Illumina HT-12 v4 expression Beadchips, according to the manufacturer's protocol. Briefly, 750 ng of cRNA was hybridized on the array overnight after which the array was washed and blocked. Then, by addition of streptavidin Cy-3 a fluorescent signal was developed. Arrays were scanned on an Illumina iScan reader and raw intensity values were background corrected in GenomeStudio (Illumina). Further data processing and statistical testing were performed with R and Bioconductor statistical software (www.bioconductor.org), using package lumi. Raw intensity values were transformed using variance stabilization and a quantile normalization was performed. A linear modelling approach with empirical Bayesian methods, as implemented in Limma package (54), was applied for differential expression analysis of the resulting probe-level expression values. A gene list, containing only those genes with an absolute 1.5-fold change between different treatments, was uploaded to Ingenuity Pathway Analysis (IPA) software and used for core analysis. Pathways or networks with a p-value of 0.05 were considered statistically significant.

For `CC(=O)N(O)CCCCCNC(=O)CCC(=O)N(O)CCCCCNC(=O)CCC(=O)N(O)CCCCCN` [DFO, reference compound], the “logFC(D142_ DFO - D142_BAS) KCNK2” value (ProbeID ILMN_1765990) was -2,07, the “logFC(D142_ DFO - D142_BAS) C10orf10” value (ProbeID ILMN_1767556) was 3,15 and the “logFC(D142_ DFO - D142_BAS) BTG2” value (ProbeID ILMN_1770085) was 2,57. The “logFC(D142_ DFO - D142_BAS) KRT34” value (ProbeID ILMN_1770228) was 3,81, the “logFC(D142_ DFO - D142_BAS) CNN2” value (ProbeID ILMN_1770290) was -2,29 and the “logFC(D142_ DFO - D142_BAS) ANGPTL2” value (ProbeID ILMN_1772612) was -2,31. The “logFC(D142_ DFO - D142_BAS) ZNF395” value (ProbeID ILMN_1772876) was 2,75, the “logFC(D142_ DFO - D142_BAS) GAS1” value (ProbeID ILMN_1772910) was -3,12 and the “logFC(D142_ DFO - D142_BAS) DKK1” value (ProbeID ILMN_1773337) was 2,79. The “logFC(D142_ DFO - D142_BAS) FBLN2” value (ProbeID ILMN_1774602) was -2,23, the “logFC(D142_ DFO - D142_BAS) SLC2A3” value (ProbeID ILMN_1775708) was 2,53 and the “logFC(D142_ DFO - D142_BAS) KCTD11” value (ProbeID ILMN_1777513) was 2,12. The “logFC(D142_ DFO - D142_BAS) LOC644774” value (ProbeID ILMN_1779258) was 2,61, the “logFC(D142_ DFO - D142_BAS) CPA4” value (ProbeID ILMN_1784294) was 5,59 and the “logFC(D142_ DFO - D142_BAS) SPOCD1” value (ProbeID ILMN_1784948) was -2,53. For the same compound, the “logFC(D142_ DFO - D142_BAS) PRKD1” value (ProbeID ILMN_1785891) was -2,05, the “logFC(D142_ DFO - D142_BAS) UHRF1” value (ProbeID ILMN_1786065) was -2,34 and the “logFC(D142_ DFO - D142_BAS) CDKN1A” value (ProbeID ILMN_1787212) was 2,78. For the same compound, the “logFC(D142_ DFO - D142_BAS) TRIB3” value (ProbeID ILMN_1787815) was 3,16, the “logFC(D142_ DFO - D142_BAS) COL11A1” value (ProbeID ILMN_1789507) was -2,55 and the “logFC(D142_ DFO - D142_BAS) GBE1” value (ProbeID ILMN_1789702) was 2,29. The “logFC(D142_ DFO - D142_BAS) PRRX2” value (ProbeID ILMN_1790338) was -2,49, the “logFC(D142_ DFO - D142_BAS) LUM” value (ProbeID ILMN_1790529) was -3,27 and the “logFC(D142_ DFO - D142_BAS) CXCL12” value (ProbeID ILMN_1791447) was -2,57. For the same compound, the “logFC(D142_ DFO - D142_BAS) DPYSL4” value (ProbeID ILMN_1792356) was 3,05, the “logFC(D142_ DFO - D142_BAS) TMEM158” value (ProbeID ILMN_1792455) was 2,58 and the “logFC(D142_ DFO - D142_BAS) SERTAD1” value (ProbeID ILMN_1794017) was 2,25. The “logFC(D142_ DFO - D142_BAS) CAMK2N1” value (ProbeID ILMN_1794863) was 2,65, the “logFC(D142_ DFO - D142_BAS) PTP4A2” value (ProbeID ILMN_1795697) was 2,22 and the “logFC(D142_ DFO - D142_BAS) ASNS” value (ProbeID ILMN_1796417) was 2,93. For the same compound, the “logFC(D142_ DFO - D142_BAS) HMGCS1” value (ProbeID ILMN_1797728) was -2,09, the “logFC(D142_ DFO - D142_BAS) PTPRF” value (ProbeID ILMN_1798081) was 2,28 and the “logFC(D142_ DFO - D142_BAS) AK3L1” value (ProbeID ILMN_1798249) was 2,66. For the same compound, the “logFC(D142_ DFO - D142_BAS) PLIN2” value (ProbeID ILMN_1801077) was 2,94, the “logFC(D142_ DFO - D142_BAS) FAM162A” value (ProbeID ILMN_1803647) was 2,50 and the “logFC(D142_ DFO - D142_BAS) CXCL12” value (ProbeID ILMN_1803825) was -2,19. The “logFC(D142_ DFO - D142_BAS) VEGFA” value (ProbeID ILMN_1803882) was 3,15, the “logFC(D142_ DFO - D142_BAS) FMO3” value (ProbeID ILMN_1808657) was -2,46 and the “logFC(D142_ DFO - D142_BAS) PGF” value (ProbeID ILMN_1809813) was 2,55. The “logFC(D142_ DFO - D142_BAS) NDRG1” value (ProbeID ILMN_1809931) was 3,57, the “logFC(D142_ DFO - D142_BAS) SFRP4” value (ProbeID ILMN_1810172) was -2,03 and the “logFC(D142_ DFO - D142_BAS) FAM129A” value (ProbeID ILMN_1810725) was 2,88. For the same compound, the “logFC(D142_ DFO - D142_BAS) PDE5A” value (ProbeID ILMN_1810836) was -2,08, the “logFC(D142_ DFO - D142_BAS) LOC402221” value (ProbeID ILMN_1811909) was -2,22 and the “logFC(D142_ DFO - D142_BAS) FAM20A” value (ProbeID ILMN_1812091) was -2,11. For the same compound, the “logFC(D142_ DFO - D142_BAS) SOX18” value (ProbeID ILMN_1812968) was -2,09, the “logFC(D142_ DFO - D142_BAS) FKSG30” value (ProbeID ILMN_1814998) was -2,25 and the “logFC(D142_ DFO - D142_BAS)” value (ProbeID ILMN_1843198 (no gene name printed)) was 3,25. For the same compound, the “logFC(D142_ DFO - D142_BAS)” value (ProbeID ILMN_1890614 (no gene name printed)) was 3,41, the “logFC(D142_ DFO - D142_BAS) SNORD13” value (ProbeID ILMN_1892403) was 2,51 and the “logFC(D142_ DFO - D142_BAS) GADD45A” value (ProbeID ILMN_2052208) was 2,60. For the same compound, the “logFC(D142_ DFO - D142_BAS) LDLR” value (ProbeID ILMN_2053415) was -2,03, the “logFC(D142_ DFO - D142_BAS) PTGS2” value (ProbeID ILMN_2054297) was 2,25 and the “logFC(D142_ DFO - D142_BAS) GAS1” value (ProbeID ILMN_2062701) was -2,07. The “logFC(D142_ DFO - D142_BAS) PMAIP1” value (ProbeID ILMN_2098446) was 2,11, the “logFC(D142_ DFO - D142_BAS) GOLGA8B” value (ProbeID ILMN_2103547) was 2,12 and the “logFC(D142_ DFO - D142_BAS) EEF1A2” value (ProbeID ILMN_2108735) was 2,72. The “logFC(D142_ DFO - D142_BAS) CTHRC1” value (ProbeID ILMN_2117508) was -2,46, the “logFC(D142_ DFO - D142_BAS) HBEGF” value (ProbeID ILMN_2121408) was 2,13 and the “logFC(D142_ DFO - D142_BAS) IGFBP5” value (ProbeID ILMN_2132982) was 2,53. The “logFC(D142_ DFO - D142_BAS) PLIN2” value (ProbeID ILMN_2138765) was 2,74, the “logFC(D142_ DFO - D142_BAS) HIST2H2AA3” value (ProbeID ILMN_2144426) was 2,07 and the “logFC(D142_ DFO - D142_BAS) GBP1” value (ProbeID ILMN_2148785) was -2,41. For the same compound, the “logFC(D142_ DFO - D142_BAS) SERPINB2” value (ProbeID ILMN_2150851) was 3,06, the “logFC(D142_ DFO - D142_BAS) SERPINB2” value (ProbeID ILMN_2150856) was 3,04 and the “logFC(D142_ DFO - D142_BAS) ALDH1B1” value (ProbeID ILMN_2150894) was -2,55. For the same compound, the “logFC(D142_ DFO - D142_BAS) LUM” value (ProbeID ILMN_2167805) was -2,01, the “logFC(D142_ DFO - D142_BAS) PFKFB3” value (ProbeID ILMN_2186061) was 4,03 and the “logFC(D142_ DFO - D142_BAS) RRAD” value (ProbeID ILMN_2186137) was 3,12. The “logFC(D142_ DFO - D142_BAS) GDF15” value (ProbeID ILMN_2188862) was 6,31, the “logFC(D142_ DFO - D142_BAS) HSPB7” value (ProbeID ILMN_2200836) was -2,12 and the “logFC(D142_ DFO - D142_BAS) TP53INP1” value (ProbeID ILMN_2214197) was 2,62. The “logFC(D142_ DFO - D142_BAS) PGK1” value (ProbeID ILMN_2216852) was 2,75, the “logFC(D142_ DFO - D142_BAS) KIFC1” value (ProbeID ILMN_2222008) was -2,05 and the “logFC(D142_ DFO - D142_BAS) BEX1” value (ProbeID ILMN_2234697) was -3,45. For the same compound, the “logFC(D142_ DFO - D142_BAS) LEPR” value (ProbeID ILMN_2234956) was -2,33, the “logFC(D142_ DFO - D142_BAS) UBE2C” value (ProbeID ILMN_2301083) was -2,01 and the “logFC(D142_ DFO - D142_BAS) VCAM1” value (ProbeID ILMN_2307903) was -3,16. The “logFC(D142_ DFO - D142_BAS) MAFF” value (ProbeID ILMN_2322375) was 2,07, the “logFC(D142_ DFO - D142_BAS) PORCN” value (ProbeID ILMN_2337058) was 2,69 and the “logFC(D142_ DFO - D142_BAS) AK3L1” value (ProbeID ILMN_2338038) was 2,28. The “logFC(D142_ DFO - D142_BAS) FMO3” value (ProbeID ILMN_2344283) was -2,30, the “logFC(D142_ DFO - D142_BAS) MKNK2” value (ProbeID ILMN_2347068) was 2,45 and the “logFC(D142_ DFO - D142_BAS) BIRC5” value (ProbeID ILMN_2349459) was -2,14. The “logFC(D142_ DFO - D142_BAS) VLDLR” value (ProbeID ILMN_2361862) was 3,17, the “logFC(D142_ DFO - D142_BAS) ATF3” value (ProbeID ILMN_2374865) was 3,23 and the “logFC(D142_ DFO - D142_BAS) VEGFA” value (ProbeID ILMN_2375879) was 3,40. The “logFC(D142_ DFO - D142_BAS) KCNK2” value (ProbeID ILMN_2376953) was -2,07, the “logFC(D142_ DFO - D142_BAS) ANGPTL4” value (ProbeID ILMN_2386444) was 2,64 and the “logFC(D142_ DFO - D142_BAS) IGFBP1” value (ProbeID ILMN_2387385) was 2,45. For the same compound, the “logFC(D142_ DFO - D142_BAS) MTHFD2” value (ProbeID ILMN_2405521) was 2,84, the “logFC(D142_ DFO - D142_BAS) PODXL” value (ProbeID ILMN_2413158) was 2,92 and the “logFC(D142_ DFO - D142_BAS) LOC100133609” value (ProbeID ILMN_3237270) was 2,49. For the same compound, the “logFC(D142_ DFO - D142_BAS) BEND5” value (ProbeID ILMN_3237448) was 2,61, the “logFC(D142_ DFO - D142_BAS) HIST2H2AA4” value (ProbeID ILMN_3242900) was 2,11 and the “logFC(D142_ DFO - D142_BAS) LOC644350” value (ProbeID ILMN_3248701) was 2,60. The “logFC(D142_ DFO - D142_BAS) LOC728934” value (ProbeID ILMN_3248758) was 2,47, the “logFC(D142_ DFO - D142_BAS) LOC644237” value (ProbeID ILMN_3283772) was 2,17 and the “logFC(D142_ DFO - D142_BAS) LOC729779” value (ProbeID ILMN_3305273) was 3,12.
